The assay concerns Pyricularia oryzae. It is filed as in vivo. Conditions: individual active compound, protective spray, inoculated next day, rated after 6 days.

Molecules are shown by their SMILES. Where two headings read alike, the source gives them in different places.

Regarding `CC1CCN(c2c(-c3c(F)cccc3Cl)c(Cl)nc3ncnn23)CC1` [A], the “Efficacy in % of the untreated control” value was determined as 0% (1 ppm in the spray liquor) and 11% (4 ppm in the spray liquor).
The matching figures for `CC(Nc1c(-c2c(F)cc(F)cc2F)c(Cl)nc2ncnn12)C(F)(F)F` (centres unmarked) [B]: 11% and 33%.
On the same counts, the results for `CC1CCN(c2c(-c3c(F)cc(F)cc3F)c(Cl)nc3ncnn23)CC1` [I, 5-chloro-7-(4-methylpiperidin-1-yl)-6-(2,4,6-trifluorophenyl)-[1,2,4]triazolo[1,5-a]pyrimidine] are 11% and 33%.
On the same counts, the results for `CCCC1COC(Cn2cncn2)(c2ccc(Cl)cc2Cl)O1` (centres unmarked) [II, 1-[2-(2,4-dichlorophenyl)-4-propyl-[1,3]dioxolan-2-ylmethyl]-1H-[1,2,4]triazole] are 0% and 0%.

Values taken from patent publication US20070082915A1 (priority 2003, published 2007).
